# In patent US5773646A, “Meta-substituted phenylene derivatives” (G. D. Searle & Co., priority 1997, dated 1998):
# Where a name gives a salt, the structure may show the parent alone.
# How the values were obtained:
# [1] = target: T1, Human vitronectin receptor (αv β3) (Homo sapiens, UniProt P05106+P06756); test: Vitronectin adhesion assay (solid phase receptor assay, biotinylated vitronectin competition); format: binding; settings: inhibition of 50% of the maximum binding of biotinylated vitronectin; 1 nM labeled ligand, 2 hours, room temperature, highest concentration of test compound 1.0×10^-4 M; read-out: AvB3 IC50
# T1 construct: Human vitronectin receptor(αv β3) was purified from human placenta; from tissue; host or cells: human placenta
# Method: VITRONECTIN ADHESION ASSAY Human vitronectin receptor(αv β3) was purified from human placenta as previously described [Pytela et al., Methods in Enzymology, 144:475-489 (1987)). Human vitronectin was purified from fresh frozen plasma as previously described [Yatohgo et al., Cell Structure and Function, 13:281-292 (1988)]. Biotinylated human vitronectin was prepared by coupling NHS-biotin from Pierce Chemical Company (Rockford, Ill.) to purified vitronectin as previously described [Charo et al., J. Biol. Chem., 266(3):1415-1421 (1991)]. Assay buffer, OPD substrate tablets, and RIA grade BSA were obtained from Sigma (St. Louis, Mo.). Anti-biotin antibody was obtained from Calbiochem (La Jolla, Calif.). Linbro microtiter plates were obtained from Flow Labs (McLean, Va.). ADP reagent was obtained from Sigma (St. Louis, Mo.). Solid Phase Receptor Assays This assay was essentially the same as previously reported [Niiya et al., Blood, 70:475-483 (1987)]. The purified human vitronectin receptor (αv β3) was diluted from stock solutions to 1.0 μg/mL in Tris-buffered saline containing 1.0 mM Ca^++, Mg^++, and Mn^++, pH 7.4 (TBS^+++). The diluted receptor was immediately transferred to Linbro microtiter plates at 100 μL/well (100 ng receptor/well). The plates were sealed and incubated overnight at 4° C. to allow the receptor to bind to the wells. All remaining steps were at room temperature. The assay plates were emptied and 200 μL of 1% RIA grade BSA in TBS^+++ (TBS^+++ /BSA) were added to block exposed plastic surfaces. Following a 2 hour incubation, the assay plates were washed with TBS^+++ using a 96 well plate washer. Logarithmic serial dilution of the test compound and controls were made starting at a stock concentration of 2 mM and using 2 nM biotinylated vitronectin in TBS^+++ /BSA as the diluent. This premixing of labeled ligand with test (or control) ligand, and subsequent transfer of 50 μL aliquots to the assay plate was carried out with a CETUS Propette robot; the final concentration of the labeled ligand was 1 nM and the highest concentration of test compound was 1.0×10^-4 M. The competition occurred for two hours after which all wells were washed with a plate washer as before. Affinity purified horseradish peroxidase labeled goat antibiotin antibody was diluted 1:3000 in TBS^+++ /BSA and 125 μL were added to each well. After 30 minutes, the plates were washed and incubated with OPD/H2 O2 substrate in 100 mM/L Citrate buffer, pH 5.0. The plate was read with a microtiter plate reader at a wavelength of 450 nm and when the maximum-binding control wells reached an absorbance of about 1.0, the final A450 were recorded for analysis. The data were analyzed using a macro written for use with the EXCEL™ spreadsheet program. The mean, standard deviation, and %CV were determined for duplicate concentrations. The mean A450 values were normalized to the mean of four maximum-binding controls (no competitor added)(B-MAX). The normalized values were subjected to a four parameter curve fit algorithm [Rodbard et al., Int.
# [2] = target: T2, Human fibrinogen receptor (αIIb β3) (Homo sapiens, UniProt P05106+P08514); test: Purified IIb/IIIa receptor assay (solid phase receptor assay, biotinylated vitronectin competition); settings: inhibition of 50% of the maximum binding of biotinylated vitronectin; 1 nM labeled ligand, 2 hours, room temperature, highest concentration of test compound 1.0×10^-4 M
# T2 construct: Human fibrinogen receptor (αIIb β3) was purified from outdated platelets; from tissue; host or cells: outdated human platelets
# Excerpt: PURIFIED IIb/IIIa RECEPTOR ASSAY Human fibrinogen receptor (αIIb β3) was purified from outdated platelets. (Pytela, R., Pierschbacher, […]., Suzuki, S., and […] acid adhesion receptors", Methods in Enzymology 144(1987):475-489.) Human vitronectin was purified from fresh frozen plasma as described in Yatohgo, T., Izumi, M., Kashiwagi, H., and Hayashi, M., "Novel purification of vitronectin from human plasma by heparin affinity chromatography," Cell Structure and Function 13(1988):281-292. Biotinylated human vitronectin was prepared by coupling NHS-biotin from Pierce Chemical Company (Rockford, Ill.) to purified vitronectin as previously described. (Charo, […]., Phillips, D. R., Hsu, M. A., Scarborough, R. M., "Inhibition of fibrinogen binding to GP IIb/IIIa by a GP IIIa peptide", J. Biol. Chem. 266(3)(1991):1415-1421.) Assay buffer, OPD substrate tablets, and RIA grade BSA were obtained from Sigma (St. Louis, Mo.). Anti-biotin antibody was obtained from Calbiochem (La Jolla, Calif.). Linbro microtiter plates were obtained from Flow Labs (McLean, Va.). ADP reagent was obtained from Sigma (St. Louis, Mo.). Solid Phase Receptor Assays This assay is essentially the same reported in […]., Bader, R., Byers-Ward, […]., Plow, E. F. and Ruggeri, Z. M., "Increased surface expression of the membrane glycoprotein IIb/IIIa complex induced by platelet activation: Relationships to the binding of fibrinogen and platelet aggregation", Blood 70(1987):475-483. The purified human fibrinogen receptor (αIIb β3) was diluted from stock solutions to 1.0 μg/mL in Tris-buffered saline containing 1.0 mM Ca^++, Mg^++, and Mn^++, pH 7.4 (TBS^+++). The diluted receptor was immediately transferred to Linbro microtiter plates at 100 μL/well (100 ng receptor/well). The plates were sealed and incubated overnight at 4° C. to allow the receptor to bind to the wells. All remaining steps were at room temperature. The assay plates were emptied and 200 μL of 1% RIA grade BSA in TBS^+++ (TBS^+++ /BSA) were added to block exposed plastic surfaces. Following a 2 hour incubation, the assay plates were washed with TBS^+++ using a 96 well plate washer. Logarithmic serial dilution of the test compound and controls were made starting at a stock concentration of 2 mM and using 2 nM biotinylated vitronectin in TBS^+++ /BSA as the diluent. This premixing of labeled ligand with test (or control) ligand, and subsequent transfer of 50 μL aliquots to the assay plate was carried out with a CETUS Propette robot; the final concentration of the labeled ligand was 1 nM and the highest concentration of test compound was 1.0×10^-4 M. The competition occurred for two hours after which all wells were washed with a plate washer as before. Affinity purified horseradish peroxidase labeled goat antibiotin antibody was diluted 1:3000 in TBS^+++ /BSA and 125 μL were added to each well. After 30 minutes, the plates were washed and incubated with […]/H2 O2 substrate in 100 mM/L citrate buffer, pH 5.0. The plate was read with a microtiter plate reader at a wavelength of 450 nm and when the maximum-binding control wells reached an absorbance of about 1.0, the final A450 were recorded for analysis. The data were analyzed using a macro written for use with the EXCELTM spreadsheet program. The mean, standard deviation, and %CV were determined for duplicate concentrations. The mean A450 values were normalized to the mean of four maximum-binding controls (no competitor added)(B-MAX). The normalized values were subjected to a four parameter curve fit algorithm, [Robard et al., Int.
IC50 [1] [µM],IC50 [2] [µM],Structure (SMILES)
0.0116,2.26,"CC(CC(=O)O)c1cccc(CNC(=O)c2cccc(NC(=N)N)c2)c1 (stereo not drawn) [Example 40, 3-[[[[3-[(aminoiminomethyl)amino]phenyl]carbonyl]amino]methyl]-β-methylbenzenepropanoic acid, trifluoroacetate salt]"
11.3,> 100,"CCOC(=O)CC(CC)c1cccc(CNC(=O)c2cccc(NC(=N)N)c2)c1 (stereo not drawn) [Example 41, ethyl 3-[[[[3-[(aminoiminomethyl)amino]phenyl]carbonyl]amino]methyl)-β-ethylbenzenepropanoate, trifluoroacetate salt]"
0.0117,0.472,"CCC(CC(=O)O)c1cccc(CNC(=O)c2cccc(NC(=N)N)c2)c1 (stereo not drawn) [Example 42, 3-([[[3-[(aminoiminomethyl)amino]phenyl]carbonyl]amino]methyl]-β-ethylbenzenepropanoic acid, trifluoroacetate salt]"
0.00718,0.798,"CC(C)C(CC(=O)O)c1cccc(CNC(=O)c2cccc(NC(=N)N)c2)c1 (stereo not drawn) [Example 43, 3-[[[[3-[(aminoiminomethyl)amino]phenyl]carbonyl]amino]methyl]-β-(1-methylethyl) benzenepropanoic acid, trifluoroacetate salt]"
3.21,0.094,"N=C(N)Nc1cccc(C(=O)NCCc2cccc(CC(=O)O)c2)c1 [Example 44, 3-[2-[[[3-[(aminoiminomethyl)amino]phenyl]carbonyl]amino]ethyl]benzeneacetic acid, monohydrate trifluoroacetate salt]"
0.0723,1.37,"CC(=O)NC(Cc1cccc(CNC(=O)c2cccc(NC(=N)N)c2)c1)C(=O)O (stereo not shown) [Example 45, N-acetyl-3-[[[[3-[(aminoiminomethyl)amino]phenyl]carbonyl]amino]methyl)phenylalanine, bis(trifluoroacetate) salt]"
2.44,2.28,"N=C(N)Nc1cccc(CC(=O)Nc2cccc(CCC(=O)O)c2)c1 [Example 46, 3-[[[3-[(aminoiminomethyl)amino]phenyl]acetyl]amino]benzenepropanoic acid, trifluoroacetate salt]"
36.5,> 100,"COC(=O)Cc1cccc(CNC(=O)c2cccc(NC(=N)N)c2)c1 [Example 47, methyl 3-[[[[3-[(aminoiminomethyl)amino]phenyl]carbonyl]amino]methyl]benzeneacetate, trifluoroacetate salt]"
1.68,12.7,"N=C(N)Nc1cccc(C(=O)NCc2cccc(CC(=O)O)c2)c1 [Example 49, 3-[[[[3-[(aminoiminomethyl)amino]phenyl]carbonyl]amino]methyl]benzeneacetic acid, trifluoroacetate salt]"
> 100,55.5,"N=C(N)Nc1cccc(C(=O)Nc2cccc(CC(=O)O)c2)c1 [Example 50, 3-[[[3-[(aminoiminomethyl)amino]phenyl]carbonyl]amino]benzeneacetic acid, trifluoroacetate salt]"
3.09,10.7,"N=C(N)Nc1cccc(NC(=O)Nc2cccc(CCC(=O)O)c2)c1 [Example 51, 3-[[[[3-[(aminoiminomethyl)amino]phenyl]amino]carbonyl]amino]benzenepropanoic acid, trifluoroacetate salt]"
16.6,39.7,"N=C(N)Nc1cccc(NC(=O)Nc2cccc(OCC(=O)O)c2)c1 [Example 52, [3-[[[[3-[(aminoiminomethyl)amino]phenyl]amino]carbonyl]amino]phenoxy]acetic acid, trifluoroacetate salt]"
1.67,2.64,"N=C(N)Nc1cccc(NC(=O)NCc2cccc(CCC(=O)O)c2)c1 [Example 53, 3-[[[[[3-[(aminoiminomethyl)amino]phenyl]amino]carbonyl]amino]methyl]benzenepropanoic acid, trifluoroacetate salt]"
0.0198,0.145,N=C(N)Nc1cccc(C(=O)NCc2cccc(C(CC(=O)O)c3cc(Cl)cc(Cl)c3)c2)c1 (stereo not shown) [Example 54]
0.108,13.4,"CNC(=NC#N)Nc1cccc(C(=O)NCc2cccc(C(CC(=O)O)c3ccccc3)c2)c1 (stereo not drawn) [Example 55, 3-[[[[3-[[(cyanoimino)(methylamino)methyl]amino]phenyl]carbonyl]amino]methyl]-β-phenylbenzenepropanoic acid]"
0.00688,1.31,"C[C@H](CC(=O)O)c1cccc(CNC(=O)c2cccc(NC(=N)N)c2)c1 [Example 56, 3-[[[[3-[(aminoiminomethyl)amino]phenyl]carbonyl]amino]methyl]-βR-methylbenzenepropanoic acid, trifluoroacetate salt hydrate]"
0.189,17.6,"C[C@@H](CC(=O)O)c1cccc(CNC(=O)c2cccc(NC(=N)N)c2)c1 [Example 57, 3-[[[[3-[(aminoiminomethyl)amino]phenyl]carbonyl]amino]methyl]-βS-methylbenzenepropanoic acid]"
